This note sets out measurements from ChEMBL document CHEMBL5212743, “Selectivity Literature for EUbOPEN Chemogenomics Library wave 3” (2023).

The structures appear in SMILES notation.

Assay [1] has as its target Macrophage-stimulating protein receptor (Homo sapiens) (UniProt Q04912). The note with it: at 1 µM.
The target in assay [2] is Tyrosine-protein kinase Lck (Homo sapiens, UniProt P06239). The note with it: at 1 µM.
Assay [3] addresses NT-3 growth factor receptor (Homo sapiens, UniProt Q16288). As to conditions: at 1 µM.
Assay [4] concerns the target Mitogen-activated protein kinase kinase kinase 1 (Homo sapiens) (UniProt Q13233). Description: Selectivity interaction (KinomeScan (DiscoverX)) EUB0000698a MAP3K1. As to conditions: at 10 µM.
For assay [5], the target named is Ribosomal protein S6 kinase alpha-6 (Homo sapiens) (UniProt Q9UK32). Briefly: Selectivity interaction (KinomeScan (DiscoverX)) EUB0000702a RPS6KA6. The note with it: at 1 µM.
Ribosomal protein S6 kinase alpha-6 (Homo sapiens), sequence (Q9UK32 whole entry): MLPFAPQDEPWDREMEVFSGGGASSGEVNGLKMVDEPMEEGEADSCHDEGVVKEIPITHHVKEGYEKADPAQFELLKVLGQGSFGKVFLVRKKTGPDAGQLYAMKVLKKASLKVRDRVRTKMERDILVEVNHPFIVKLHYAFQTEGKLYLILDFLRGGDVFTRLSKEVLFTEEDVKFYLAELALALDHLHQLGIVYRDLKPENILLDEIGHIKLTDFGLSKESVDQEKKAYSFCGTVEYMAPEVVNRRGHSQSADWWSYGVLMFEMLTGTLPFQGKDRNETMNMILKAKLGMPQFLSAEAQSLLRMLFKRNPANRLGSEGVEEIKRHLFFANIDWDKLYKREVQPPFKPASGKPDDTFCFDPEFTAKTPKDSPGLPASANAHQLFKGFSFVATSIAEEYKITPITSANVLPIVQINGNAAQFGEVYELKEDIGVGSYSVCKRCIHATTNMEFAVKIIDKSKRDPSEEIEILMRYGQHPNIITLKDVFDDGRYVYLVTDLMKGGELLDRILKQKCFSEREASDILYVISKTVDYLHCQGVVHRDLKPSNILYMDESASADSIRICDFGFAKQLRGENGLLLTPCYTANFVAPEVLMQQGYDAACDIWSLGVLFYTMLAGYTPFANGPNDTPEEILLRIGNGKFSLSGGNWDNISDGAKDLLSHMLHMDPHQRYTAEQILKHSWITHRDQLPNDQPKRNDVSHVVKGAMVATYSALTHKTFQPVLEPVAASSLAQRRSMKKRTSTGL
Assay [6] addresses NUAK family SNF1-like kinase 2 (Homo sapiens) (UniProt Q9H093). Description: Selectivity interaction (KinomeScan (DiscoverX)) EUB0000702a NUAK2. As to conditions: at 1 µM.
Assay [7] addresses T1, Phosphatidylinositol 5-phosphate 4-kinase type-2 beta (Homo sapiens) (UniProt P78356).
T1 sequence (whole entry): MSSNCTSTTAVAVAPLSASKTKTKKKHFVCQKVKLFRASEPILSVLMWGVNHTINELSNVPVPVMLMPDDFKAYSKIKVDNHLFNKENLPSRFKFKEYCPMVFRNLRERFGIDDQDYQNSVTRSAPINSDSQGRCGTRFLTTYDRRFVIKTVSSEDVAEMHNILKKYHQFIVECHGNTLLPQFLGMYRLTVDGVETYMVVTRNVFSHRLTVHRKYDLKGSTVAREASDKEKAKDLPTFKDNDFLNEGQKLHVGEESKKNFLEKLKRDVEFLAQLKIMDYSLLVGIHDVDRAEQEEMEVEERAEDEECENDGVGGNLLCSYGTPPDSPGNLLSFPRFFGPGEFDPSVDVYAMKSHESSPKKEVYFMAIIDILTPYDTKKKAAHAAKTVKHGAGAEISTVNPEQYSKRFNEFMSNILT
Briefly: Selectivity interaction (KinomeScan (DiscoverX)) EUB0000702a PIP4K2B. As to conditions: at 1 µM.

In assay [8] the target is Aurora kinase B (Homo sapiens, UniProt Q96GD4). Description: Selectivity interaction (KinomeScan (DiscoverX)) EUB0000178b AURKB. The note with it: at 1 µM.
Aurora kinase B, sequence (Q96GD4 whole entry): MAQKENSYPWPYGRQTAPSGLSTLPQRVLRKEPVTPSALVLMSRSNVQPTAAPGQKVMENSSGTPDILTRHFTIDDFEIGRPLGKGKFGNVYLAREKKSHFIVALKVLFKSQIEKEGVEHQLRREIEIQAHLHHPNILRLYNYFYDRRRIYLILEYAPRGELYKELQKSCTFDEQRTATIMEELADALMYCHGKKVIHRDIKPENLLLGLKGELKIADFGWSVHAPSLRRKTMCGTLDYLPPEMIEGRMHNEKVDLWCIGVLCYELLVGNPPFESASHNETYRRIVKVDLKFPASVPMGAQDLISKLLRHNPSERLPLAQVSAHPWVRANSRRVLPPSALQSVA
Assay [9] addresses T2, Serine/threonine-protein kinase ULK2 (Homo sapiens) (UniProt Q8IYT8).
T2 sequence (whole entry): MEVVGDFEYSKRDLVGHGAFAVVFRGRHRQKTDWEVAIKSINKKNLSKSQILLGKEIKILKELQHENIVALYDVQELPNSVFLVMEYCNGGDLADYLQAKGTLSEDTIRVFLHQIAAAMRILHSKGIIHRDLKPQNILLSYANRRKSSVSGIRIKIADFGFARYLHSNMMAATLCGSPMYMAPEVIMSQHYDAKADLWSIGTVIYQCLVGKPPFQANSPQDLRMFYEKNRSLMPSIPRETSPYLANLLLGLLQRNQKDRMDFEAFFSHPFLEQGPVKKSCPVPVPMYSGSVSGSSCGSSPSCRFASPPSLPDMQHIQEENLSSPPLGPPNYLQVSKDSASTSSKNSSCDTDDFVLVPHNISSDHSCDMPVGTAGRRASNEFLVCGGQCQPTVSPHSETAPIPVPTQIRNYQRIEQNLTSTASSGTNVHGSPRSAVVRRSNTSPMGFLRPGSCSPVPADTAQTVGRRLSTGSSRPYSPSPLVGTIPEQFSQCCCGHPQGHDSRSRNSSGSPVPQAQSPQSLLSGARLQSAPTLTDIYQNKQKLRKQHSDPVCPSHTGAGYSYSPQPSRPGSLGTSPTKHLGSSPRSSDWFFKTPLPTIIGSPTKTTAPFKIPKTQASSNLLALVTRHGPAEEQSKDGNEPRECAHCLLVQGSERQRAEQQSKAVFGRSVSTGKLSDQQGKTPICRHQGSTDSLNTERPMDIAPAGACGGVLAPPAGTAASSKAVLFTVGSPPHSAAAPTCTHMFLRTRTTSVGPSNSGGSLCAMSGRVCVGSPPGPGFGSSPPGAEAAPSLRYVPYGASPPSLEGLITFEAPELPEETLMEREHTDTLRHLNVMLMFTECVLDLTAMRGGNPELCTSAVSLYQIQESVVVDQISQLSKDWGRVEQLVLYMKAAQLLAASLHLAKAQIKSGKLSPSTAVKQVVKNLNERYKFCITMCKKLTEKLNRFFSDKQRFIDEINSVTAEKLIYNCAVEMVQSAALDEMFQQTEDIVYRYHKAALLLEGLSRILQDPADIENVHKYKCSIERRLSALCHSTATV
Description: Selectivity interaction (KinomeScan (DiscoverX)) EUB0000178b ULK2. As to conditions: at 1 µM.

The target in assay [10] is T3, Serine/threonine-protein kinase TAO3 (Homo sapiens) (UniProt Q9H2K8).
T3 sequence (whole entry): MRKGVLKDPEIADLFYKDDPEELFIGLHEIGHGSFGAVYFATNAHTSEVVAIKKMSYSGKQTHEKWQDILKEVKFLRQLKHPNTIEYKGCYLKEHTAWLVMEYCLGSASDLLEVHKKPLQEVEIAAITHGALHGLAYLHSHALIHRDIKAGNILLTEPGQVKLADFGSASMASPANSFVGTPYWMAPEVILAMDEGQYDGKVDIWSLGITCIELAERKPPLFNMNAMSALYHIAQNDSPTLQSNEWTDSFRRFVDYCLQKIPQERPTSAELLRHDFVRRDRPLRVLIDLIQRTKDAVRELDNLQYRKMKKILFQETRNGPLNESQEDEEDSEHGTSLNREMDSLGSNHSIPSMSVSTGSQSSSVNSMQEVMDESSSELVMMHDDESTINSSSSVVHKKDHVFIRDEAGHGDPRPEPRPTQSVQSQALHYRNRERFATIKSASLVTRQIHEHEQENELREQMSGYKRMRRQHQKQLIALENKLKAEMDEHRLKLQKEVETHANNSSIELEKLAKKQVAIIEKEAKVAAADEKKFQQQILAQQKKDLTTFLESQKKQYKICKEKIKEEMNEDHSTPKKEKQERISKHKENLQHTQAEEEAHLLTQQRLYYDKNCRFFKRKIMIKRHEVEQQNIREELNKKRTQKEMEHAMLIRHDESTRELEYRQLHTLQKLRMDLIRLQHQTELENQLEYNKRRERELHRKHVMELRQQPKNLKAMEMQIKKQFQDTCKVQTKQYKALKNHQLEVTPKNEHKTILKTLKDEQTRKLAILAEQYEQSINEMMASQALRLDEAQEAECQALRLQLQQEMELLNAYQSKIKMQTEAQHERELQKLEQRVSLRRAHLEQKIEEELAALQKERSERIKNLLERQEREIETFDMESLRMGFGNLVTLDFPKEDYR
Description: Selectivity interaction (KinomeScan (DiscoverX)) EUB0000178b TAOK3. As to conditions: at 1 µM.

The target in assay [11] is Serine/threonine-protein phosphatase 2A activator (Homo sapiens) (UniProt Q15257). Description: Selectivity interaction (Kinase panel (University of Dundee)) EUB0000169b PTPA. As to conditions: at 10 µM.
Serine/threonine-protein phosphatase 2A activator (Homo sapiens), sequence (Q15257 whole entry): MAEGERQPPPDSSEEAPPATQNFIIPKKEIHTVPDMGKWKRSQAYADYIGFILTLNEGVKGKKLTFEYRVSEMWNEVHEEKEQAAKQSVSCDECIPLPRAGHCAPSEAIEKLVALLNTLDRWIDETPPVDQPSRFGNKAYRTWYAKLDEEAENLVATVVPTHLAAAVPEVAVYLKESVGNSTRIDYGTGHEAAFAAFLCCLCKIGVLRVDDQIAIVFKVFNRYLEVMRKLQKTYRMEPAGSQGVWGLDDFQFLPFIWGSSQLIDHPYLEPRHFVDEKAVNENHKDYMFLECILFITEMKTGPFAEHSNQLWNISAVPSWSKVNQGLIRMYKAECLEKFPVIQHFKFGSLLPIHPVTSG
In assay [12] the target is Rho-associated protein kinase 2 (Homo sapiens) (UniProt O75116). Description: Selectivity interaction (Kinase panel (University of Dundee)) EUB0000169b ROCK2. The note with it: at 10 µM.

Mitogen-activated protein kinase kinase kinase 1 (Homo sapiens), sequence (Q13233 whole entry): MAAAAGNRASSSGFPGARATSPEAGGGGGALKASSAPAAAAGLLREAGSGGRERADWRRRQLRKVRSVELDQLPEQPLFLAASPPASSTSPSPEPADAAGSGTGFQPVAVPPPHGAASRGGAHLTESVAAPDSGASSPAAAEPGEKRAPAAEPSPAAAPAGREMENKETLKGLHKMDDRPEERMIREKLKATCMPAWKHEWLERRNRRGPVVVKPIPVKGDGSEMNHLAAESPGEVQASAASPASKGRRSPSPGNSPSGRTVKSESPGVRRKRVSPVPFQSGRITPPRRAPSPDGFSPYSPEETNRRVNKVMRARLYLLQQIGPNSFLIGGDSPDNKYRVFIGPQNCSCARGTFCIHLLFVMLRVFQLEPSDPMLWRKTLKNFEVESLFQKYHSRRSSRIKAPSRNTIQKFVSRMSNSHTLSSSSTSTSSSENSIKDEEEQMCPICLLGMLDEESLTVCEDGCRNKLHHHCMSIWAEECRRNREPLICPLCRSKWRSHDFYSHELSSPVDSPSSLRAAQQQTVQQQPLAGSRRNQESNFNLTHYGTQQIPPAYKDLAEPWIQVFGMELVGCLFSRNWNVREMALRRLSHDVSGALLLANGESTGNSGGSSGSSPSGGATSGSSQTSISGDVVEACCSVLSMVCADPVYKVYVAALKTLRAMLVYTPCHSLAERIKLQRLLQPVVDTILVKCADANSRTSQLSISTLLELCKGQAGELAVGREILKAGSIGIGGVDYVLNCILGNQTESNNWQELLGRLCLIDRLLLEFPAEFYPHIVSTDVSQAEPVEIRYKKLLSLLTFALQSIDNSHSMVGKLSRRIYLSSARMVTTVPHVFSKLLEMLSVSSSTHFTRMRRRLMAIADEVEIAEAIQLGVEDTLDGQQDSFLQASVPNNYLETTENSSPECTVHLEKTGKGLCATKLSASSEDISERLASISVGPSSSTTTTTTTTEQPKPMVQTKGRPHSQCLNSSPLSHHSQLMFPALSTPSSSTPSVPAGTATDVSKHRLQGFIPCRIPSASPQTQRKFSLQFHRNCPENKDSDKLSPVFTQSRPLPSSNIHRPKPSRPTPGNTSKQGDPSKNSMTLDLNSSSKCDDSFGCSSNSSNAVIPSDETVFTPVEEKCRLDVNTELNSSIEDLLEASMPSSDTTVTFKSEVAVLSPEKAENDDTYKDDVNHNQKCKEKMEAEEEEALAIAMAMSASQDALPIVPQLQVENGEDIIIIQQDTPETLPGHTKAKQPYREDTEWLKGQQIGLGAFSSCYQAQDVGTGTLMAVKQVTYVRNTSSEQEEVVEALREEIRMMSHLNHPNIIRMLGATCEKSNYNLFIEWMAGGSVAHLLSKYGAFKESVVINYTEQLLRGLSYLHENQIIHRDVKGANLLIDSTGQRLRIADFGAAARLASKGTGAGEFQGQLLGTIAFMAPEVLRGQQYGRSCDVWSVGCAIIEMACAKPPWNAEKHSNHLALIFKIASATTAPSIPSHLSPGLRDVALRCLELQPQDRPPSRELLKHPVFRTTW
Macrophage-stimulating protein receptor (Homo sapiens), sequence (Q04912 whole entry): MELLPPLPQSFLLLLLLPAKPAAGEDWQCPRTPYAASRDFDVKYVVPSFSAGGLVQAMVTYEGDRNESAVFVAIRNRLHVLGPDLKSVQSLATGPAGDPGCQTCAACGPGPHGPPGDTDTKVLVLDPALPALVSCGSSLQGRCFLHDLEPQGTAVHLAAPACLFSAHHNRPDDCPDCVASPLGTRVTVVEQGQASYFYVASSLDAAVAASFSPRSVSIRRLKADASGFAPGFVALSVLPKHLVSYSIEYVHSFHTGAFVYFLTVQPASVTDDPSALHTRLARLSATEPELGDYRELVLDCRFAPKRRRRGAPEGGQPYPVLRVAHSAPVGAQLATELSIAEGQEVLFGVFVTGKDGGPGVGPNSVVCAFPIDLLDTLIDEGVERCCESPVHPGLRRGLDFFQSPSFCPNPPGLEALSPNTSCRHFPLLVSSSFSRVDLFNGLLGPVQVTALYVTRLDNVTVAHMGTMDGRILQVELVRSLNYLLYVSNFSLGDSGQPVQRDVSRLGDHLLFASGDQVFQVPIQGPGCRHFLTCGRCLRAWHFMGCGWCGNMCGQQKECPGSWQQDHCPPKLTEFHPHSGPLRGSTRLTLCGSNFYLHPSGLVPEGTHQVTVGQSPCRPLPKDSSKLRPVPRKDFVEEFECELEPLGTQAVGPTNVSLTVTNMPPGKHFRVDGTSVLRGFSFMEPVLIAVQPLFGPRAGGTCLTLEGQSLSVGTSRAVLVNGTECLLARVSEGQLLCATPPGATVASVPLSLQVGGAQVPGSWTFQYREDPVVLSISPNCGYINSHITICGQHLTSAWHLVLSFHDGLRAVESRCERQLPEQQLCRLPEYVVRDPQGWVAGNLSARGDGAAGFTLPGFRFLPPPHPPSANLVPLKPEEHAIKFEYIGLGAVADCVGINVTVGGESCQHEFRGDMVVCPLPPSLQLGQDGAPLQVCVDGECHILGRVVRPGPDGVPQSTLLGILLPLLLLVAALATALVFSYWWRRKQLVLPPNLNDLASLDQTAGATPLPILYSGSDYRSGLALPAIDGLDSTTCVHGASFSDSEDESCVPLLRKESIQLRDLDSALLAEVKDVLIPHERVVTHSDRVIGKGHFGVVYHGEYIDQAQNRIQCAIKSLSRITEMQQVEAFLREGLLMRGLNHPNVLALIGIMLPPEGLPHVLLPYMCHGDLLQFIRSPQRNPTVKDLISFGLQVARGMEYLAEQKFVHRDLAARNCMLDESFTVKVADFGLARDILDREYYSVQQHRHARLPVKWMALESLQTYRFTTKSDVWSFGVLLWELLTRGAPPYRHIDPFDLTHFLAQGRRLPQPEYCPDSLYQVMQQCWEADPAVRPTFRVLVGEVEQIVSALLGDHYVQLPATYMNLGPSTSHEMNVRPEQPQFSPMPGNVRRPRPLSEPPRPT
Tyrosine-protein kinase Lck, sequence (P06239 whole entry, looked up): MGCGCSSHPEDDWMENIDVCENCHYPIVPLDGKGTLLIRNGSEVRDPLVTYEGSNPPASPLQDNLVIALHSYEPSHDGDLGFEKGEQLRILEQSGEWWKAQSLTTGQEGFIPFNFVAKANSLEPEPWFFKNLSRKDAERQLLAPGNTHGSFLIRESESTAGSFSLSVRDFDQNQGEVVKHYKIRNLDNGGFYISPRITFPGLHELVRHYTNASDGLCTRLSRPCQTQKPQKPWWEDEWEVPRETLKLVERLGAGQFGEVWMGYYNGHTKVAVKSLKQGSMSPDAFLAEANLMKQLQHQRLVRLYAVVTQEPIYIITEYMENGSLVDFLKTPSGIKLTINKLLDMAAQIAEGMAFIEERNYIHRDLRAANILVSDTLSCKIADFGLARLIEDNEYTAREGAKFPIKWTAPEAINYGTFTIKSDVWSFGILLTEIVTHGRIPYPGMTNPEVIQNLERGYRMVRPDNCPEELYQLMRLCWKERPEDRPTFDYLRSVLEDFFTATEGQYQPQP

In the case of `CCOc1cn(-c2ccc(F)cc2C)nc1C(=O)Nc1ccc(Oc2ccnc3cc(OC)c(OC)cc23)c(F)c1`, the % of control in [1], in [2] and in [3] was < 10% in each case.

On to `COc1cc2ncn(-c3cc(OCc4ccccc4C(F)(F)F)c(C(N)=O)s3)c2cc1OC` [GW843682X], for which the % of control in assay [4] came to 1.6%.

For the compound `CN(c1ccnc(CNc2nc(Nc3ccc4c(c3)CC(=O)N4)ncc2C(F)(F)F)n1)S(C)(=O)=O` [PF-00911705], the % of control in assay [5] worked out at 4.6%; in assay [6], 7.6%; in assay [7], 4.8%.

In the case of `CN1C(=O)c2sccc2N(C)c2nc(Nc3ccc(S(N)(=O)=O)cc3)ncc21`, the % of control in [8] came out at 3.4%; in [9], 4.8%; in assay [10], 4.5%.

Regarding `CC[C@@H]1C(=O)N(C)c2cnc(Nc3ccc(C(=O)NC4CCN(C)CC4)cc3OC)nc2N1C1CCCC1`, the values for the % of control in assay [11] and in assay [12] were 56% and 98%, respectively.
